The inhibition in vivo is the percentage by which the read-out fell short of the control. A high value points to a response far below the control. For orientation: pIC50 means the negative decadic logarithm of the IC50, by convention in mol/L. Read a high pIC50 as a low IC50.

pIC50: −log10 of the molar value.

In assay [1] the test system is Cavia porcellus. In words: Ex vivo platelet aggregation of compound was measured in guinea pig up to 5 hr after intraduodenal dose of 1 mg/kg. It counts as functional.
In assay [2] the test system is Cavia porcellus. Nature of the assay: Ex vivo platelet aggregation of compound was measured in guinea pig up to 5 hr after intraduodenal dose of 3 mg/kg. It counts as functional.
The species entered for a further assay is Homo sapiens. In words: Tested in vitro for the inhibition of ADP-induced aggregation of human blood platelets. The format is functional.
Assay [3] deals with T1, Integrin alpha-IIb/beta-3 (Homo sapiens, UniProt P05106+P08514). In words: Inhibition of fibrinogen binding to GPllb/IIIa receptor. It counts as protein-complex assay.
For assay [4], the target named is T1, Integrin alpha-IIb/beta-3. Nature of the assay: Inhibition of fibrinogen binding to immobilized human glycoprotein alpha IIb beta-3 integrin. It counts as protein-complex assay.
For assay [5], the system named is Cavia porcellus. Nature of the assay: Ex vivo platelet aggregation of compound was measured in guinea pig up to 5 hr after intraduodenal dose of 0.3 mg/kg. It counts as functional.
Assay [6] relates to Cavia porcellus. In words: Ex vivo platelet aggregation of compound was measured in guinea pig up to 5 hr after intraduodenal dose of 10 mg/kg. The format is functional.

T1 sequence (P05106 27-788 limits assumed): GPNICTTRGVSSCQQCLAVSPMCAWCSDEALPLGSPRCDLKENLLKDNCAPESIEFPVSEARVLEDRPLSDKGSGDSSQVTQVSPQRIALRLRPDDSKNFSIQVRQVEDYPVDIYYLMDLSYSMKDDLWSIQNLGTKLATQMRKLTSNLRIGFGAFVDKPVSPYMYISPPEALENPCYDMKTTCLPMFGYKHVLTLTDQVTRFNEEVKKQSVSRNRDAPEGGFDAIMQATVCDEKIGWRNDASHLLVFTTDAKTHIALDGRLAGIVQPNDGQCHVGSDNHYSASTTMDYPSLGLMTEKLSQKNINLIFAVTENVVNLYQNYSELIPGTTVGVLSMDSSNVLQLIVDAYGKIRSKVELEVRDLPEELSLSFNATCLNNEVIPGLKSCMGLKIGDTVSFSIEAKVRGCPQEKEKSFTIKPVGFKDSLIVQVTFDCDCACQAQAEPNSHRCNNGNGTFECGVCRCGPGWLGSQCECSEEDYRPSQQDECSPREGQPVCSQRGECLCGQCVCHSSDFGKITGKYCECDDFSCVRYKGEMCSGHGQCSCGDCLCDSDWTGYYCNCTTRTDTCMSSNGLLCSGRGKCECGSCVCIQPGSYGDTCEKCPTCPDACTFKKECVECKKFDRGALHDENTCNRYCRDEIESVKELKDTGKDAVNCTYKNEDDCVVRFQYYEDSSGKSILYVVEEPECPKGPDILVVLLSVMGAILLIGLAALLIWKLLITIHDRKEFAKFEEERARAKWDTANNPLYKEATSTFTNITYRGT
T1 sequence (P08514 32-887 limits assumed): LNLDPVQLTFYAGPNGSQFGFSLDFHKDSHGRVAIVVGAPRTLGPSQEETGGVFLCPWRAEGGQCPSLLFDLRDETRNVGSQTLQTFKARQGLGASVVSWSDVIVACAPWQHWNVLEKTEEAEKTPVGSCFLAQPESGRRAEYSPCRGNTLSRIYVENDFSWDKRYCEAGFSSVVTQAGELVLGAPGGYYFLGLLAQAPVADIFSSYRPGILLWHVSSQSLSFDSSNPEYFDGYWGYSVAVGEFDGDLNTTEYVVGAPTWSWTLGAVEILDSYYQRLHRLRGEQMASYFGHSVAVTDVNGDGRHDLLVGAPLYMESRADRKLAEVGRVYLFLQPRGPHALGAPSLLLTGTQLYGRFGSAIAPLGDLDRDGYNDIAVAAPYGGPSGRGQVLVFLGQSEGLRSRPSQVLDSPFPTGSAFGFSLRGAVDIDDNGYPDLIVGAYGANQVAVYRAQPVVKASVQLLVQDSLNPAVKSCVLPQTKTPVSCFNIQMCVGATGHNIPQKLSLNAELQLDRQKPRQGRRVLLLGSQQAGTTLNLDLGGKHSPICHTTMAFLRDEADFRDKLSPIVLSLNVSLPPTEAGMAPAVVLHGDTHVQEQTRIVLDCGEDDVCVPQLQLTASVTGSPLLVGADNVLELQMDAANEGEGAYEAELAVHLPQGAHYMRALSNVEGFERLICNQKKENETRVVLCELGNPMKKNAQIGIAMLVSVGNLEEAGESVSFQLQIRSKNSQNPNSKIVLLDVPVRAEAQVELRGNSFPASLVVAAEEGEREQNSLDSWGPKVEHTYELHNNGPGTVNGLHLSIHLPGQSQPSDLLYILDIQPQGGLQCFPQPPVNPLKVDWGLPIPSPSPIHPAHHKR
T1 sequence (P08514 891-1039 limits assumed): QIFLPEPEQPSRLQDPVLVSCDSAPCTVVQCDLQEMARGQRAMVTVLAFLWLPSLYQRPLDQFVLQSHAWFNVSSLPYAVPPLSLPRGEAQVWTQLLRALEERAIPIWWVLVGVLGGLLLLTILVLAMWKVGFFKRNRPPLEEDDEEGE

`CC(C)CC(=O)N[C@@H](CCCNC(=O)Cc1ccc(C(=N)N)cc1)CC(=O)O` returned an inhibition in vivo at 1 mg/kg with Cavia porcellus [1] of 25%. This compound returned an inhibition in vivo at 3 mg/kg in the assay with Cavia porcellus [2] of 75%. The same compound showed a negative-log IC50 (pIC50) in the assay filed under Homo sapiens of 7.00.
On to `Cc1ccc(S(=O)(=O)N[C@@H](CCCNC(=O)OCc2ccccc2)C(=O)O)cc1` [ORNITHINE SULFONAMIDE], for which the pIC50 in assay [3] is 4.70.
For the compound `COc1ccc(CCS(=O)(=O)N[C@H](CCCCNC(=O)c2ccc(C(=N)N)cc2)CC(=O)O)cc1`, the pIC50 was 9.00 in assay [4] and 7.10 in the assay listed under Homo sapiens.
With `COc1ccc(CCC(=O)N[C@@H](CCCNC(=O)Cc2ccc(C(=N)N)cc2)CC(=O)O)cc1`, the inhibition in vivo at 1 mg/kg in the assay on Cavia porcellus [1] is 10%. Further, the pIC50 in assay [4] is 8.96; in the assay listed under Homo sapiens, 7.51. In the assay on Cavia porcellus [2], this compound gave an inhibition in vivo at 3 mg/kg of 10%.
In the case of `N=C(N)c1ccc(CC(=O)NCCC[C@@H](CC(=O)O)NC(=O)CC23C[C@H]4C[C@@H](C2)C[C@@H](C3)C4)cc1`, the pIC50 was 8.66 in assay [4] and 7.17 in the assay filed under Homo sapiens.
The corresponding values for `CC(C)CNC(=O)[C@@H](CCCNC(=O)Cc1ccc(C(=N)N)cc1)CC(=O)O` are 8.10 and 6.02.
For the compound `Cc1ccc(S(=O)(=O)N[C@@H](CCCNC(=O)Cc2ccc(C(=N)N)cc2)C(=O)O)cc1`, the negative-log IC50 (pIC50) in assay [4] was 4.32; in the assay listed under Homo sapiens it was 4.51.
In turn, `COc1ccc(CCC(=O)N[C@H](CCCCNC(=O)c2ccc(C(=N)N)cc2)CC(=O)O)cc1` displayed an inhibition in vivo at 1 mg/kg with Cavia porcellus [1] of 90%. Moreover, the pIC50 in assay [4] is 9.44; in the assay filed under Homo sapiens it was 7.74. In the assay on Cavia porcellus [5], this compound registered an inhibition in vivo at 0.3 mg/kg of 45%.
Turning to `N=C(N)c1ccc(CC(=O)NCCC[C@@H](CC(=O)O)NC(=O)CCC23C[C@H]4C[C@@H](C2)C[C@@H](C3)C4)cc1`, the pIC50 was 9.43 in assay [4] and 7.21 in the assay listed under Homo sapiens. The inhibition in vivo at 3 mg/kg with Cavia porcellus [2] turned out to be 10%.
`N=C(N)c1ccc(C(=O)NCCCC[C@H](CC(=O)O)NC(=O)Cc2cccc3ccccc23)cc1` had an inhibition in vivo at 1 mg/kg with Cavia porcellus [1] of 40%. The results for the pIC50 (in assay [4]; in the assay listed under Homo sapiens) were 9.44 and 7.74, respectively.
On to `Cc1ccc(S(=O)(=O)N[C@@H](CCCNC(=O)Cc2ccc(C(=N)N)cc2)CC(=O)O)cc1`, for which the inhibition in vivo at 10 mg/kg with Cavia porcellus [6] was found to be 10%. Also, in the assay listed under Homo sapiens, the negative-log IC50 (pIC50) was 6.19.
In the assay with Cavia porcellus [1], `CC(C)CC(=O)N[C@H](CCCCNC(=O)c1ccc(C(=N)N)cc1)CC(=O)O` had an inhibition in vivo at 1 mg/kg of 65%. Besides, the figures for the negative-log IC50 (pIC50) (in assay [4]; in the assay filed under Homo sapiens) were 9.27 and 7.82, respectively. In the assay on Cavia porcellus [2], the inhibition in vivo at 3 mg/kg is 75%.

(Values after ChEMBL document CHEMBL1129882, “Beta-amino acid derivatives as orally active non-peptide fibrinogen receptor antagonists” (Bioorg Med Chem Lett, 1997).)
